Measured values as given in US9854800B2, “Herbicidal compositions comprising 4-amino-3-chloro-6-(4-chloro-2-fluoro-3-methoxyphenyl)-5-fluoropyridine-2-carboxylic acid or a derivative thereof and chlormequat chloride” (priority 2015, dated 2018).

Experiments:
Type in all cases: in vivo
Conditions in all cases: 21 DAA
[1] = test system: CHEAL = Chenpodium album L. (common lambsquarters); experiment: Post-emergent foliar herbicidal activity, greenhouse: CHEAL
Procedure: (§1) Seeds of the desired test plant species were planted in Sun Gro MetroMix® 306 planting mixture, which typically has a pH of 6.0 to 6.8 and an organic matter content of about 30 percent, in plastic pots with a surface area of 103.2 square centimeters (cm^2). When required to ensure good germination and healthy plants, a fungicide treatment and/or other chemical or physical treatment was applied. The plants were grown for 7-36 days in a greenhouse with an approximate 14 hour (h) photoperiod which was maintained at about 18° C. during the day and 17° C. during the night. Nutrients and water were added on a regular basis and supplemental lighting was provided with overhead metal halide 1000-Watt lamps as necessary. The plants were employed for testing when they reached the second or third true leaf stage.
(§2) Treatments consisted of the compound of formula (I) and a second herbicide alone (chlormequat). Weighed amounts of the compound of formula (I) were placed in 25 milliliter (mL) glass vials and dissolved in 4 mL of a 97:3 v/v mixture of acetone and DMSO to obtain concentrated stock solutions. Compound requirements are based upon a 12 mL application volume at a rate of 187 liters per hectare (L/ha). Spray solutions of the second herbicide and compound of formula (I) mixtures were prepared by adding the stock solutions to the appropriate amount of dilution solution to form 12 mL spray solution with active ingredients in two-way combinations. Formulated compounds were applied to the plant material with an overhead Mandel track sprayer equipped with 8002E nozzles calibrated to deliver 187 L/ha over an application area of 0.503 square meters (m^2) at a spray height of […] above average plant canopy. Control plants were sprayed in the same manner with the solvent blank.
(§3) The treated plants and control plants were placed in a greenhouse as described above and watered by sub-irrigation to prevent wash-off of the test compounds. After 20-22 days, the condition of the test plants as compared with that of the control plants was determined visually and scored on a scale of 0 to 100 percent where 0 corresponds to no injury and 100 corresponds to complete kill.
(§4) Colby's equation was used to determine the herbicidal effects expected from the mixtures (Colby, S. R. 1967. Calculation of the synergistic and antagonistic response of herbicide combinations. Weeds 15:20-22.) .
(§5) The following equation was used to calculate the expected activity of mixtures containing two active ingredients, A and B: Expected=A+B−(A×B/100)
(§6) A=observed efficacy of active ingredient A at the same concentration as used in the mixture.
(§7) B=observed efficacy of active ingredient B at the same concentration as used in the mixture.

[2] = test system: LAMPU = Lamium purpureum L. (purple deadnettle); experiment: Post-emergent foliar herbicidal activity, greenhouse: LAMPU
Procedure: as §1, §2, §3, §4, §5, §6, §7

[3] = test system: CIRAR = Cirsium arvense (L.) Scop. (Canada thistle); experiment: Post-emergent foliar herbicidal activity, greenhouse: CIRAR
Procedure: as §1, §2, §3, §4, §5, §6, §7

[4] = test system: MATCH = Matricaria recutita L. (wild chamomile); experiment: Post-emergent foliar herbicidal activity, greenhouse: MATCH
Procedure: as §1, §2, §3, §4, §5, §6, §7

[5] = test system: TRZAS = Triticum aestivum (spring) (spring wheat); experiment: Post-emergent foliar herbicidal activity, greenhouse: TRZAS (crop)
Procedure: as §1, §2, §3, §4, §5, §6, §7

[6] = test system: VERPE = Veronica persica Poir. (Persian speedwell); experiment: Post-emergent foliar herbicidal activity, greenhouse: VERPE
Procedure: as §1, §2, §3, §4, §5, §6, §7

[7] = test system: HORVS = Hordeum vulgare L. (spring barley); experiment: Post-emergent foliar herbicidal activity, greenhouse: HORVS (crop)
Procedure: as §1, §2, §3, §4, §5, §6, §7

[8] = test system: KCHSC = Kochia scoparia (L.) Schrad. (kochia); experiment: Post-emergent foliar herbicidal activity, greenhouse: KCHSC
Procedure: as §1, §2, §3, §4, §5, §6, §7

[9] = test system: VIOTR = Viola tricolor L. (wild violet); experiment: Post-emergent foliar herbicidal activity, greenhouse: VIOTR
Procedure: as §1, §2, §3, §4, §5, §6, §7

[10] = test system: STEME = Stellaria media (common chickweed); experiment: Post-emergent foliar herbicidal activity, greenhouse: STEME
Procedure: as §1, §2, §3, §4, §5, §6, §7

[11] = test system: SINAR = Sinapis arvensis L. (wild mustard); experiment: Post-emergent foliar herbicidal activity, greenhouse: SINAR
Procedure: as §1, §2, §3, §4, §5, §6, §7

[12] = test system: SASKR = Salsola tragus L. (Russian thistle); experiment: Post-emergent foliar herbicidal activity, greenhouse: SASKR
Procedure: as §1, §2, §3, §4, §5, §6, §7

[13] = test system: PAPRH = Papaver rhoeas L. (common poppy); experiment: Post-emergent foliar herbicidal activity, greenhouse: PAPRH
Procedure: as §1, §2, §3, §4, §5, §6, §7

[14] = test system: GALAP = Galium aparine L. (catchweed bedstraw); experiment: Post-emergent foliar herbicidal activity, greenhouse: GALAP
Procedure: as §1, §2, §3, §4, §5, §6, §7

[15] = test system: BRSNW = Brassica napus napus (winter) (winter rape); experiment: Post-emergent foliar herbicidal activity, greenhouse: BRSNW
Procedure: as §1, §2, §3, §4, §5, §6, §7

[16] = Compound I 0 + Chlormequat Chloride 279 g ai/ha
[17] = Compound I 0 + Chlormequat Chloride 558 g ai/ha
[18] = Compound I 0 + Chlormequat Chloride 1119 g ai/ha
[19] = Compound I 2.5 + Chlormequat Chloride 0 g ai/ha
[20] = Compound I 5 + Chlormequat Chloride 0 g ai/ha
[21] = Compound I 10 + Chlormequat Chloride 0 g ai/ha

SMILES: C[N+](C)(C)CCCl.[Cl-] [Chlormequat Chloride, (2-chloroethyl)trimethylammonium chloride]
- CHEAL Obs [1, 16]: 0%
- CHEAL Obs [1, 17]: 3%
- LAMPU Obs [2, 16]: 15%
- LAMPU Obs [2, 17]: 15%
- LAMPU Obs [2, 18]: 30%
- CIRAR Obs [3, 16]: 5%
- CIRAR Obs [3, 17]: 5%
- CIRAR Obs [3, 18]: 10%
- MATCH Obs [4, 16]: 0%
- MATCH Obs [4, 17]: 0%
- MATCH Obs [4, 18]: 27%
- TRZAS Obs [5, 16]: 0%
- TRZAS Obs [5, 17]: 8%
- VERPE Obs [6, 16]: 10%
- VERPE Obs [6, 17]: 10%
- VERPE Obs [6, 18]: 13%
- HORVS Obs [7, 16]: 0%
- HORVS Obs [7, 17]: 0%
- KCHSC Obs [8, 16]: 5%
- KCHSC Obs [8, 17]: 5%
- KCHSC Obs [8, 18]: 7%
- VIOTR Obs [9, 16]: 0%
- VIOTR Obs [9, 17]: 0%
- VIOTR Obs [9, 18]: 3%
- STEME Obs [10, 16]: 8%
- STEME Obs [10, 17]: 8%
- STEME Obs [10, 18]: 7%
- SINAR Obs [11, 16]: 8%
- SINAR Obs [11, 17]: 15%
- SASKR Obs [12, 16]: 0%
- SASKR Obs [12, 17]: 0%
- SASKR Obs [12, 18]: 7%
- PAPRH Obs [13, 16]: 5%
- PAPRH Obs [13, 17]: 5%
- PAPRH Obs [13, 18]: 7%
- GALAP Obs [14, 16]: 3%
- GALAP Obs [14, 17]: 5%
- GALAP Obs [14, 18]: 20%
- BRSNW Obs [15, 16]: 0%
- BRSNW Obs [15, 17]: 3%
- BRSNW Obs [15, 18]: 5%

SMILES: COc1c(Cl)ccc(-c2nc(C(=O)OCc3ccccc3)c(Cl)c(N)c2F)c1F [Compound I, benzyl 4-amino-3-chloro-6-(4-chloro-2-fluoro-3-methoxyphenyl)-5-fluoropyridine-2-carboxylate]
- CHEAL Obs [1, 19]: 50%
- CHEAL Obs [1, 20]: 58%
- LAMPU Obs [2, 19]: 80%
- LAMPU Obs [2, 20]: 86%
- LAMPU Obs [2, 21]: 94%
- CIRAR Obs [3, 19]: 48%
- CIRAR Obs [3, 20]: 39%
- CIRAR Obs [3, 21]: 60%
- MATCH Obs [4, 19]: 20%
- MATCH Obs [4, 20]: 25%
- MATCH Obs [4, 21]: 20%
- TRZAS Obs [5, 19]: 0%
- TRZAS Obs [5, 20]: 0%
- VERPE Obs [6, 19]: 20%
- VERPE Obs [6, 20]: 17%
- VERPE Obs [6, 21]: 23%
- HORVS Obs [7, 19]: 0%
- HORVS Obs [7, 20]: 0%
- KCHSC Obs [8, 19]: 20%
- KCHSC Obs [8, 20]: 41%
- KCHSC Obs [8, 21]: 62%
- VIOTR Obs [9, 19]: 30%
- VIOTR Obs [9, 20]: 20%
- VIOTR Obs [9, 21]: 20%
- STEME Obs [10, 19]: 25%
- STEME Obs [10, 20]: 25%
- STEME Obs [10, 21]: 27%
- SINAR Obs [11, 19]: 70%
- SINAR Obs [11, 20]: 73%
- SASKR Obs [12, 19]: 15%
- SASKR Obs [12, 20]: 50%
- SASKR Obs [12, 21]: 67%
- PAPRH Obs [13, 19]: 48%
- PAPRH Obs [13, 20]: 28%
- PAPRH Obs [13, 21]: 35%
- GALAP Obs [14, 19]: 55%
- GALAP Obs [14, 20]: 66%
- GALAP Obs [14, 21]: 77%
- BRSNW Obs [15, 19]: 18%
- BRSNW Obs [15, 20]: 13%
- BRSNW Obs [15, 21]: 13%
